# Legend:
# Assay in all cases: biochemical
# Adenosine receptor A2a [1] = molecular target: Adenosine receptor A2a (Homo sapiens, UniProt P29274, H250N)
# Adenosine receptor A2a [2] = molecular target: Adenosine receptor A2a (Homo sapiens, UniProt P29274)
# Description: Binding affinity for HA-tagged wild type human Adenosine A2A receptor (WT) using [3H]CGS-21680 as radioligand expressed in COS-7 cells
# Adenosine receptor A2a [3] = molecular target: Adenosine receptor A2a (Homo sapiens, UniProt P29274, V84L)
# Sequence of Adenosine receptor A2a (Homo sapiens, UniProt P29274, V84L) (P29274 whole entry V84L): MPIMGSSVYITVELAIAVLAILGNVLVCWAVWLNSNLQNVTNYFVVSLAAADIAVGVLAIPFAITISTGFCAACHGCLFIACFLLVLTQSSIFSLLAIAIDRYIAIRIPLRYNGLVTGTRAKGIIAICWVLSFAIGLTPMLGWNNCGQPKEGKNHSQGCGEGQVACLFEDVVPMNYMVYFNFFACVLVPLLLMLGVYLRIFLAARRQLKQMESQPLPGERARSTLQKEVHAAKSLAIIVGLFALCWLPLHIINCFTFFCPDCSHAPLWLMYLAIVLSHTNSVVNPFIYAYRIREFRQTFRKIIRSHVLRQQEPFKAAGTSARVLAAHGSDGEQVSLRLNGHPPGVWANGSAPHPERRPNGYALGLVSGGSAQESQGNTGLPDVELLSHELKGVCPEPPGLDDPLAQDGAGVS
# Sequence of Adenosine receptor A2a (Homo sapiens, UniProt P29274) (P29274 whole entry): as the sequence (P29274 whole entry V84L) above, with L84V counted along it
# Sequence of Adenosine receptor A2a (Homo sapiens, UniProt P29274, H250N) (P29274 whole entry H250N): as the sequence (P29274 whole entry V84L) above, with L84V, H250N counted along it
Ki (Adenosine receptor A2a [1]) [µM],Ki (Adenosine receptor A2a [2]) [µM],Ki (Adenosine receptor A2a [3]) [µM],SMILES
33,16.7,18.1,O=c1c(O)c(-c2ccccc2)oc2cc(O)cc(O)c12 [GALANGIN]
0.0359,0.0381,0.0189,COc1cc(OC)cc(C(CNc2ncnc3c2ncn3[C@@H]2O[C@H](CO)[C@@H](O)[C@H]2O)c2ccccc2C)c1 (stereo not given in full)
54.3,106,72.6,CCOC(=O)c1sc(SCc2ccccc2)c2c1CCCC2=O

SMILES,Ki (Adenosine receptor A2a [1]) [µM],Ki (Adenosine receptor A2a [2]) [µM],Ki (Adenosine receptor A2a [3]) [µM]
COC(=O)C1=C(C)NC(C)=C(C(=O)OC)C1c1ccccc1[N+](=O)[O-] [NIFEDIPINE],22.2,244,22.2
N=C(N)NC(=O)c1nc(Cl)c(N)nc1N [AMILORIDE],3.28,12,11.6

# — ChEMBL document CHEMBL1130114 (J Med Chem, 1997)
